Non-standard residues stand in square brackets, D forms with d. No end group written: not given here. *: point of attachment. Biotin = O=C1N[C@H]2[C@H](CS[C@H]2CCCCC(=O)*)N1; R(dz) = photo-arginine
Tested on: HEK293T nuclear lysates
Assay: SILAC‐based pull‐down proteomics H4K5me1/H4K5 (probes 6/5)
Type: binding, human
Conditions: for B6 log2 (H4K5me/H4K5): run B6; for C6 log (H4K5me/H4K5): run C6

## probe 6: H4K5me peptide probe with photo‐arginine R(dz) and K(biotin) (SG[R(dz)]GK(Me)GGKGLGKGGK(Biotin))
10 µµ probe, 365 nm UV 30 min, streptavidin enrichment, n = 2
  proteins recruited (SILAC proteomics H4K5me1/H4K5): could recruit L3MBTL2
Protein A0A0B4J1Z1 SRSF7
  B6 log2 (H4K5me/H4K5): 0.2308
  C6 log (H4K5me/H4K5): 0.1007
Protein A0A0C4DG89 DDX46
  B6 log2 (H4K5me/H4K5): 0.248
  C6 log (H4K5me/H4K5): 0.4939
Protein A0A0C4DG98 THOC2
  B6 log2 (H4K5me/H4K5): 0.2302
  C6 log (H4K5me/H4K5): -0.4085
Protein A0A2R8Y5G6 DDX3X
  B6 log2 (H4K5me/H4K5): 0.1671
  C6 log (H4K5me/H4K5): 0.08362
Protein A0A2R8Y855 SMARCE1
  B6 log2 (H4K5me/H4K5): 0.1691
  C6 log (H4K5me/H4K5): 0.1589
Protein A0A087WWS1 THOC1
  B6 log2 (H4K5me/H4K5): 0.1897
  C6 log (H4K5me/H4K5): 0.01015
Protein A0A087X2G1 DDX1
  B6 log2 (H4K5me/H4K5): 0.2376
  C6 log (H4K5me/H4K5): 0.1483
Protein B1AK87 CAPZB
  B6 log2 (H4K5me/H4K5): 0.2362
  C6 log (H4K5me/H4K5): 0.1912
Protein C9JFR7 CYCS
  B6 log2 (H4K5me/H4K5): 0.1664
  C6 log (H4K5me/H4K5): 0.2306
Protein E5RJR5 SKP1
  B6 log2 (H4K5me/H4K5): 0.2613
  C6 log (H4K5me/H4K5): 0.4362
Protein E9PCY7 HNRNPH1
  B6 log2 (H4K5me/H4K5): 0.1643
  C6 log (H4K5me/H4K5): -0.04567
Protein E9PHA2 NCAPH
  B6 log2 (H4K5me/H4K5): 0.2207
  C6 log (H4K5me/H4K5): -0.3454
Protein F5GYN4 OTUB1
  B6 log2 (H4K5me/H4K5): 0.1534
  C6 log (H4K5me/H4K5): -0.02948
Protein F5H8F7 ASH2L
  B6 log2 (H4K5me/H4K5): 0.1889
  C6 log (H4K5me/H4K5): 0.02508
Protein F8VRQ1 HNRNPA1
  B6 log2 (H4K5me/H4K5): 0.2132
  C6 log (H4K5me/H4K5): 0.1279
Protein G3V4C1 HNRNPC
  B6 log2 (H4K5me/H4K5): 0.1754
  C6 log (H4K5me/H4K5): 0.1012
Protein G3V529 DDX24
  B6 log2 (H4K5me/H4K5): 0.1507
  C6 log (H4K5me/H4K5): -0.9684
Protein J3KTA4 DDX5
  B6 log2 (H4K5me/H4K5): 0.1484
  C6 log (H4K5me/H4K5): 0.164
Protein M0R3H0 RPS16
  B6 log2 (H4K5me/H4K5): 0.2369
  C6 log (H4K5me/H4K5): -0.3242
Protein O00567 NOP56
  B6 log2 (H4K5me/H4K5): 0.2329
  C6 log (H4K5me/H4K5): 0.2086
Protein O14980 XPO1
  B6 log2 (H4K5me/H4K5): 0.2117
  C6 log (H4K5me/H4K5): -0.03544
Protein O15042 U2SURP
  B6 log2 (H4K5me/H4K5): 0.1992
  C6 log (H4K5me/H4K5): 0.3265
Protein O43143 DHX15
  B6 log2 (H4K5me/H4K5): 0.2048
  C6 log (H4K5me/H4K5): 0.2816
Protein O43290 SART1
  B6 log2 (H4K5me/H4K5): 0.229
  C6 log (H4K5me/H4K5): 0.0852
Protein O43395 PRPF3
  B6 log2 (H4K5me/H4K5): 1.011
  C6 log (H4K5me/H4K5): 1.011
Protein O43491 EPB41L2
  B6 log2 (H4K5me/H4K5): 0.1873
  C6 log (H4K5me/H4K5): 0.1809
Protein O43719 HTATSF1
  B6 log2 (H4K5me/H4K5): 0.2156
  C6 log (H4K5me/H4K5): 0.1171
Protein O43929 ORC4
  B6 log2 (H4K5me/H4K5): 0.2071
  C6 log (H4K5me/H4K5): 0.2724
Protein O60216 RAD21
  B6 log2 (H4K5me/H4K5): 0.1881
  C6 log (H4K5me/H4K5): 0.2602
Protein O60934 NBN
  B6 log2 (H4K5me/H4K5): 0.1747
  C6 log (H4K5me/H4K5): 0.1942
Protein O75525 KHDRBS3
  B6 log2 (H4K5me/H4K5): 0.1909
  C6 log (H4K5me/H4K5): 0.05512
Protein O95202 LETM1
  B6 log2 (H4K5me/H4K5): 0.2397
  C6 log (H4K5me/H4K5): 0.3564
Protein O95218 ZRANB2
  B6 log2 (H4K5me/H4K5): 0.1711
  C6 log (H4K5me/H4K5): 0.2764
Protein O95456 PSMG1
  B6 log2 (H4K5me/H4K5): 0.8105
  C6 log (H4K5me/H4K5): 0.8105
Protein O95983 MBD3
  B6 log2 (H4K5me/H4K5): 0.1485
  C6 log (H4K5me/H4K5): 0.1715
Protein P06748 NPM1
  B6 log2 (H4K5me/H4K5): 0.1928
  C6 log (H4K5me/H4K5): 0.1848
Protein P07900 HSP90AA1
  B6 log2 (H4K5me/H4K5): 0.1623
  C6 log (H4K5me/H4K5): 0.0357
Protein P09661 SNRPA1
  B6 log2 (H4K5me/H4K5): 0.1608
  C6 log (H4K5me/H4K5): 0.0265
Protein P11142 HSPA8
  B6 log2 (H4K5me/H4K5): 0.1602
  C6 log (H4K5me/H4K5): 0.128
Protein P11388 TOP2A
  B6 log2 (H4K5me/H4K5): 0.1715
  C6 log (H4K5me/H4K5): -0.2242
Protein P12004 PCNA
  B6 log2 (H4K5me/H4K5): 0.186
  C6 log (H4K5me/H4K5): 0.08942
Protein P19338 NCL
  B6 log2 (H4K5me/H4K5): 0.2437
  C6 log (H4K5me/H4K5): 0.2101
Protein P22061 PCMT1
  B6 log2 (H4K5me/H4K5): 0.8673
  C6 log (H4K5me/H4K5): 0.8673
Protein P22087 FBL
  B6 log2 (H4K5me/H4K5): 0.1734
  C6 log (H4K5me/H4K5): 0.2534
Protein P22102 GART
  B6 log2 (H4K5me/H4K5): 0.1557
  C6 log (H4K5me/H4K5): -0.03854
Protein P25398 RPS12
  B6 log2 (H4K5me/H4K5): 0.2482
  C6 log (H4K5me/H4K5): 0.204
Protein P29692 EEF1D
  B6 log2 (H4K5me/H4K5): 0.1672
  C6 log (H4K5me/H4K5): -0.1339
Protein P31153 MAT2A
  B6 log2 (H4K5me/H4K5): 0.1703
  C6 log (H4K5me/H4K5): 0.05667
Protein P42166 TMPO
  B6 log2 (H4K5me/H4K5): 0.2154
  C6 log (H4K5me/H4K5): 0.1594
Protein P46109 CRKL
  B6 log2 (H4K5me/H4K5): 0.2247
